{"source": "patent US6576233B2", "about": "(priority 1996, dated 2003)", "origin": "cited, not measured here", "key": {"people": {"system": "people", "conditions": "daily supplement, more than 1,300 people"}, "[1]": {"conditions": "Ferris et al. 1989"}}, "data": [{"smiles": "[Se]", "note": "[Selenium, selenium]", "values": [{"measurement": "reduction of overall cancer risk", "setting": "people", "result": "~40", "unit": "%"}, {"measurement": "dosage reported as safe", "setting": "[1]", "result": 600, "unit": "micrograms per day"}]}]}
